These results are taken from patent publication US20220202905A1, “COMPOSITION FOR PREVENTING OR TREATING NEUROTROPHIC KERATITIS WHICH CONTAINS PACAP PEPTIDE OR STABILIZED PACAP PEPTIDE” (SENJU PHARMACEUTICAL CO., LTD., priority 2019, published 2022).

The subject of test [1] is neurotrophic keratitis rat model. Briefly: Corneal sensation (Cochet-Bonnet) in neurotrophic keratitis rat model. The format is in vivo. The following applies: 0.1% eye drops, capsaicin-treated rats; method and result in present tense. The procedure:
(§1) A rat model was prepared, by subcutaneous administration of capsaicin in the dorsal region of rats, which elicited corneal nerve injury and attenuated corneal sensation while also leading to decreased lacrimal fluid volume and superficial punctate keratitis (SPK) (NPL 3: Investigative Ophthalmology & Visual Science (2012), vol. 53, No. 13, p. 8280-8287). The rats were given PACAP27 and its stabilized peptide eye drops, and the inhibiting effect on corneal damage was examined. The specific experiment method was as follows.
(§2) Capsaicin (product of Sigma) was dissolved in PBS containing 10% EtOH and 10% Tween80, and subcutaneously administered to the dorsal region of 4-day-old male Wistar/ST rats at a dose of 50 mg/kg·b·w.
The base was prepared by dissolving 0.3 g of trishydroxymethylaminomethane (Nacalai Tesque, Inc.) and 4.4 g of D(−)-mannitol (Nacalai Tesque, Inc.) in 100 mL of sterilized water, adding 1 N·HCl and adjusting the pH to 7. […] Each eye drops was stored at room temperature. Each eye drop was initially administered 3 weeks after administration of capsaicin, 3 times every day, in an amount of 10 μL for each eye.
Corneal sensation is measured using a Cochet-Bonnet corneal sensory meter (Handaya Shoten). […] This procedure is repeated 3 times, and the average value for the obtained filament lengths is recorded as the corneal sensation threshold (CST) for that individual.

Test [2] shares this test system. Briefly: Superficial punctate keratitis (SPK) score in neurotrophic keratitis rat model. The format is in vivo. The conditions noted are these: 0.1% eye drops 3 times daily, evaluated 2 weeks after start of eye dropping; FIG. 4. The procedure:
as §1
Capsaicin (product of Sigma) was dissolved in PBS containing 10% EtOH and 10% Tween80, and subcutaneously administered to the dorsal region of 4-day-old male Wistar/ST rats at a dose of 50 mg/kg·b·w. […]
SPK was evaluated 2 weeks after the start of eye dropping. […] The eye surface was then observed with a slit lamp microscope, and the degree of corneal damage was evaluated by the method of Murakami et al., Atarashii Ganka 21 (1):87-90 (2004). Specifically, the cornea was divided into 3 regions, the top, center and bottom, and a score was assigned to each region on the following scale, with the value of the total of the scores of the 3 regions being recorded as the SPK score. <Scale> 0: No punctate stains, 1: Sparse (separated punctate fluorescein stains), 2: Intermediate (between 1 and 3), 3: Dense (almost all punctate fluorescein stains adjacent).

Test [3] shares this test system. Briefly: Corneal nerve staining, nerve density in neurotrophic keratitis rat model. The conditions noted are these: 0.1% eye drops, capsaicin-treated rats; method and result in present tense. It is filed as in vivo. The procedure:
as §1, §2
The base was prepared by dissolving 0.3 g of trishydroxymethylaminomethane (Nacalai Tesque, Inc.) and 4.4 g of D(−)-mannitol (Nacalai Tesque, Inc.) in 100 mL of sterilized water, adding 1 N·HCl and adjusting the pH to 7. […] Each eye drops was stored at room temperature. […]
After euthanizing rats, the eye bulbs are extracted and immersed in Zamboni solution (product of Wako Pure Chemical Industries, Ltd.), and allowed to stand for 15 minutes at room temperature. […] The nerve density of the swirl structure in the nerve layer is quantified by conducting Sholl analysis using image analysis software (Image J).

Test [4] relates to rat trigeminal nerve cells. Briefly: Axon elongation effect on cultured rat trigeminal nerve cells. The format is cell-based. The following applies: 1 μM peptide, 24 hours; N=8; Dunnett's test vs control P<0.001; FIG. 5. The procedure: Rats (Sic: Sprague-Dawley, 17-day-old, including female and male) purchased from Japan SLC, Inc. were euthanized by carbon dioxide gas inhalation and the trigeminal ganglion was harvested. The harvested trigeminal ganglion was washed with Hanks' balanced salt solution (HBSS) and then treated with collagenase A (Roche) for 30 minutes at 37° C. A neuron dispersion (Wako) was then used according to protocol for dispersion of the cells. Debris removal solution (Miltenyi biotec) and Myelin removal beads II (Miltenyi biotec) were used according to protocol to remove the debris and myelin. After suspending the isolated trigeminal nerve cells in culture solution, they were seeded onto a polylysine/laminin-coated 8-well chamber slide (Corning) at 2.5×10^3 cells/well. The culture solution used was Neurobasal-A containing B27 supplement (final concentration: 2%) and GlutaMAX (final concentration: 2 mM) and penicillin/streptomycin (final concentration: 1%). The culturing conditions were a carbon dioxide concentration of 5%, an air concentration of 95%, a humidity of 100% and a temperature of 37° C. […] The control was replaced with peptide-free culture solution. Culture medium replacement was followed by further culturing for 24 hours.
The culture medium was replaced with peptide-containing culture solution, and the rat trigeminal nerve cells cultured for 24 hours were immersed in a 2% paraformaldehyde solution at room temperature for 20 minutes for fixing. The cells were washed with PBS, and then 2% bovine serum albumin containing 0.1% TritonX-100 was added and reaction was conducted for 30 minutes. After washing with PBS, it was reacted with phospho-neurofilament H antibody (Merck, MAB1592-C) specifically recognizing neurofilaments forming the neuron bodies and neurites, for 1 hour at room temperature. After reaction for 1 hour, a fluorescent-labeled secondary antibody (Invitrogen Corp., #A-11031) was reacted at room temperature for 1 hour for fluorescent staining of the sample, and the stained cells were observed under a fluorescent microscope. The stained cell image was captured as an image from the fluorescent microscope and loaded into a computer.
In order to evaluate the extent of neurite formation by the rat trigeminal nerve cells, cells with neurites having lengths of at least twice the cell body diameter in the stained cell image in the computer were counted as neurite-forming cells, and the percentage (%) of this number of cells over the total cell count was calculated (Otori Y. Wei J Y, Barnstable C J. Invest. Ophthalmol Vis Sci (1998) 39, 972-981). The significant difference with respect to the control was determined by Dunnett's test (P<0.001).

Square brackets hold non-standard residues; d marks the D form. Peptide text beside a SMILES is read from it. Ala(1H-tetrazol-5-yl) = N[C@@H](Cc1nnn[nH]1)C(=O)O

Take `CC[C@H](C)[C@H](NC(=O)CNC(=O)[C@H](CC(=O)O)NC(=O)[C@H](CO)NC(=O)[C@@H](N)Cc1cnc[nH]1)C(=O)N[C@@H](Cc1ccccc1)C(=O)N[C@H](C(=O)N[C@@H](CC(=O)O)C(=O)N[C@@H](CO)C(=O)N[C@@H](Cc1ccc(O)cc1)C(=O)N[C@@H](CO)C(=O)N[C@@H](CCCNC(=N)N)C(=O)N[C@@H](Cc1ccc(O)cc1)C(=O)N[C@@H](CCCNC(=N)N)C(=O)N[C@@H](CCCCN)C(=O)N[C@@H](CCC(N)=O)C(=O)N[C@@H](CCSC)C(=O)N[C@@H](C)C(=O)N[C@H](C(=O)N[C@@H](CCCCN)C(=O)N[C@@H](CCCCN)C(=O)N[C@@H](Cc1ccc(O)cc1)C(=O)N[C@@H](CC(C)C)C(=O)N[C@@H](C)C(=O)N[C@@H](C)C(=O)N[C@H](C(=O)N[C@@H](CC(C)C)C(N)=O)C(C)C)C(C)C)[C@@H](C)O` [Peptide 1, reference compound]: in test [1], the “corneal sensation threshold (CST)” value was “improves reduction in corneal sensation”. The SPK score result in test [2] is reported as “improved the increased SPK score”. The “corneal nerve density (Sholl analysis)” value in test [3] was “improves reduction in nerve density”. The “axon elongation (percentage of neurite-forming cells)” value in test [4] is “exhibited axon elongation-promoting effects”.
The like results for `CC[C@H](C)[C@H](NC(=O)CNC(=O)[C@H](Cc1nnn[nH]1)NC(=O)[C@H](CO)NC(=O)[C@H](Cc1c[nH]cn1)NC(C)=O)C(=O)N[C@@H](Cc1ccccc1)C(=O)N[C@H](C(=O)N[C@@H](Cc1nnn[nH]1)C(=O)N[C@@H](CO)C(=O)N[C@@H](Cc1ccc(O)cc1)C(=O)N[C@@H](CO)C(=O)N[C@@H](CCCNC(=N)N)C(=O)N[C@@H](Cc1ccc(O)cc1)C(=O)N[C@@H](CCCNC(=N)N)C(=O)N[C@@H](CCCCN)C(=O)N[C@@H](CCC(N)=O)C(=O)N[C@@H](CC(C)C)C(=O)N[C@@H](C)C(=O)N[C@H](C(=O)N[C@@H](CCCCN)C(=O)N[C@@H](CCCCN)C(=O)N[C@@H](Cc1ccc(O)cc1)C(=O)N[C@@H](CC(C)C)C(=O)N[C@@H](C)C(=O)N[C@@H](C)C(=O)N[C@H](C(=O)N[C@@H](CC(C)C)C(N)=O)C(C)C)C(C)C)[C@@H](C)O` [Peptide 9] (Ac-HS[Ala(1H-tetrazol-5-yl)]GIFT[Ala(1H-tetrazol-5-yl)]SYSRYRKQLAVKKYLAAVL-NH2) were, in that order, “improves reduction in corneal sensation”, “improved the increased SPK score”, “improves reduction in nerve density” and “exhibited axon elongation-promoting effects”.
